Assay results published in the NIST ThermoML archive (doi:10.1016/j.jct.2019.02.011).

Test: xn = mol fraction of the nth substance listed
Conditions: Liquid, Vibrating tube method

COC(=O)OC [dimethyl carbonate] + CCO
mass density [kg/m3]
Conditions	100 kPa	5000 kPa	10000 kPa	15000 kPa	20000 kPa	25000 kPa	30000 kPa	35000 kPa	40000 kPa
288.15 K, x1 = 0.0252	804.2	808	812.06	815.89	819.61	822.92	826.21	829.16	832.33
288.15 K, x1 = 0.0506	813.67	817.57	821.64	825.53	829.25	832.61	835.95	838.9	842.19
288.15 K, x1 = 0.0757	823.01	826.96	831.04	834.98	838.69	842.06	845.41	848.42	851.7
288.15 K, x1 = 0.1003	831.96	835.91	839.99	843.94	847.7	851.08	854.48	857.54	860.78
288.15 K, x1 = 0.1508	849.93	853.94	858.08	862.04	865.84	869.28	872.69	875.76	879.06
288.15 K, x1 = 0.2	866.84	870.91	875.1	879.08	882.88	886.33	889.8	892.93	896.24
288.15 K, x1 = 0.2547	885.11	889.19	893.38	897.43	901.27	904.73	908.21	911.35	914.67
288.15 K, x1 = 0.3002	899.9	903.99	908.19	912.25	916.09	919.56	923.05	926.24	929.57
288.15 K, x1 = 0.3498	915.51	919.65	923.86	927.88	931.71	935.24	938.74	941.95	945.28
288.15 K, x1 = 0.4	930.78	934.94	939.15	943.23	947.06	950.6	954.16	957.37	960.71
288.15 K, x1 = 0.449	945.14	949.35	953.57	957.66	961.48	965.03	968.6	971.87	975.22
288.15 K, x1 = 0.4996	959.51	963.73	967.96	972.06	975.93	979.49	983.06	986.34	989.7
288.15 K, x1 = 0.5507	973.56	977.78	982.01	986.13	989.99	993.56	997.14	1000.43	1003.8
288.15 K, x1 = 0.6005	986.73	990.95	995.19	999.32	1003.17	1006.8	1010.39	1013.69	1017.06
288.15 K, x1 = 0.6455	998.17	1002.45	1006.64	1010.83	1014.68	1018.32	1021.92	1025.22	1028.6
288.15 K, x1 = 0.6931	1009.92	1014.21	1018.41	1022.55	1026.4	1030.05	1033.65	1037.01	1040.4
288.15 K, x1 = 0.7502	1023.43	1027.72	1031.92	1036.08	1039.92	1043.58	1047.24	1050.61	1054
288.15 K, x1 = 0.8009	1035	1039.3	1043.51	1047.68	1051.52	1055.18	1058.85	1062.22	1065.62
288.15 K, x1 = 0.8505	1046	1050.3	1054.51	1058.68	1062.52	1066.19	1069.82	1073.25	1076.6
288.15 K, x1 = 0.9008	1056.7	1061.01	1065.22	1069.4	1073.24	1076.92	1080.55	1083.98	1087.34
288.15 K, x1 = 0.9255	1061.81	1066.14	1070.35	1074.54	1078.38	1082.06	1085.69	1089.13	1092.49
288.15 K, x1 = 0.9477	1066.36	1070.68	1074.89	1079.08	1082.92	1086.6	1090.23	1093.68	1097.04
288.15 K, x1 = 0.9735	1071.55	1075.89	1080.08	1084.28	1088.11	1091.79	1095.43	1098.88	1102.23
288.15 K, x1 = 1	1076.83	1081.15	1085.32	1089.52	1093.35	1096.99	1100.63	1104.08	1107.4
293.15 K, x1 = 0.0252	799.52	803.53	807.63	811.64	815.31	819.03	822.43	825.77	828.8
293.15 K, x1 = 0.0506	808.93	813.04	817.2	821.2	824.93	828.7	832.16	835.5	838.59
293.15 K, x1 = 0.0757	818.21	822.32	826.48	830.53	834.27	838.04	841.5	844.9	848.05
293.15 K, x1 = 0.1003	827.05	831.21	835.37	839.43	843.17	846.95	850.46	853.86	857.02
293.15 K, x1 = 0.1508	844.9	849.11	853.32	857.39	861.19	864.97	868.5	871.96	875.19
293.15 K, x1 = 0.2	861.69	865.96	870.22	874.34	878.21	882.03	885.62	889.09	892.34
293.15 K, x1 = 0.2547	879.83	884.11	888.37	892.5	896.38	900.3	903.95	907.43	910.71
293.15 K, x1 = 0.3002	894.46	898.79	903.11	907.24	911.13	915.06	918.71	922.25	925.54
293.15 K, x1 = 0.3498	909.95	914.32	918.65	922.78	926.73	930.66	934.33	937.83	941.14
293.15 K, x1 = 0.4	925.11	929.49	933.81	937.95	941.91	945.85	949.52	953.08	956.41
293.15 K, x1 = 0.449	939.35	943.78	948.11	952.25	956.22	960.16	963.84	967.41	970.75
293.15 K, x1 = 0.4996	953.6	958.04	962.37	966.52	970.5	974.44	978.13	981.71	985.12
293.15 K, x1 = 0.5507	967.53	971.96	976.3	980.45	984.45	988.38	992.09	995.67	999.1
293.15 K, x1 = 0.6005	980.58	985.07	989.41	993.51	997.52	1001.46	1005.17	1008.76	1012.2
293.15 K, x1 = 0.6455	991.96	996.45	1000.79	1004.95	1008.96	1012.9	1016.62	1020.22	1023.68
293.15 K, x1 = 0.6931	1003.6	1008.14	1012.44	1016.6	1020.62	1024.56	1028.29	1031.89	1035.36
293.15 K, x1 = 0.7502	1017.03	1021.58	1025.93	1030.04	1034.07	1038.07	1041.8	1045.41	1048.9
293.15 K, x1 = 0.8009	1028.54	1033.09	1037.44	1041.56	1045.6	1049.6	1053.34	1056.96	1060.46
293.15 K, x1 = 0.8505	1039.42	1043.97	1048.32	1052.45	1056.49	1060.49	1064.24	1067.85	1071.38
293.15 K, x1 = 0.9008	1050.05	1054.61	1058.94	1063.09	1067.15	1071.17	1074.9	1078.5	1082.06
293.15 K, x1 = 0.9255	1055.15	1059.71	1064.04	1068.18	1072.28	1076.27	1080.01	1083.62	1087.15
293.15 K, x1 = 0.9477	1059.65	1064.21	1068.54	1072.7	1076.81	1080.81	1084.52	1088.13	1091.64
293.15 K, x1 = 0.9735	1064.83	1069.39	1073.72	1077.83	1081.94	1085.94	1089.66	1093.25	1096.74
293.15 K, x1 = 1	1070.06	1074.62	1078.93	1083.01	1087.08	1091.03	1094.75	1098.34	1101.84
298.15 K, x1 = 0.0252	795.08	799.26	803.35	807.39	811.05	–	–	–	–
298.15 K, x1 = 0.0506	804.43	808.65	812.8	816.89	820.61	–	–	–	–
298.15 K, x1 = 0.0757	813.64	817.91	822.06	826.15	829.93	–	–	–	–
298.15 K, x1 = 0.1003	822.42	826.69	830.89	834.98	838.77	–	–	–	–
298.15 K, x1 = 0.1508	840.14	844.46	848.67	852.81	856.66	–	–	–	–
298.15 K, x1 = 0.2	856.81	861.18	865.45	869.59	873.46	–	–	–	–
298.15 K, x1 = 0.2547	874.78	879.19	883.47	887.66	891.55	–	–	–	–
298.15 K, x1 = 0.3002	889.24	893.65	897.98	902.17	906.13	–	–	–	–
298.15 K, x1 = 0.3498	904.6	909.01	913.35	917.59	921.56	–	–	–	–
298.15 K, x1 = 0.4	919.63	924.09	928.49	932.73	936.77	–	–	–	–
298.15 K, x1 = 0.449	933.8	938.26	942.66	946.91	950.95	–	–	–	–
298.15 K, x1 = 0.4996	947.93	952.44	956.85	961.1	965.16	–	–	–	–
298.15 K, x1 = 0.5507	961.74	966.24	970.71	974.95	–	–	–	–	–
298.15 K, x1 = 0.6005	974.67	979.17	983.64	987.89	–	–	–	–	–
298.15 K, x1 = 0.6455	985.93	990.48	994.96	999.21	–	–	–	–	–
298.15 K, x1 = 0.6931	997.5	1002.05	1006.53	1010.78	–	–	–	–	–
298.15 K, x1 = 0.7502	1010.81	1015.36	1019.85	1024.1	–	–	–	–	–
298.15 K, x1 = 0.8009	1022.25	1026.8	1031.29	1035.55	–	–	–	–	–
298.15 K, x1 = 0.8505	1033.01	1037.56	1042.06	1046.31	–	–	–	–	–
298.15 K, x1 = 0.9008	1043.58	1048.13	1052.63	1056.89	–	–	–	–	–
298.15 K, x1 = 0.9255	1048.64	1053.19	1057.7	1061.95	–	–	–	–	–
298.15 K, x1 = 0.9477	1053.11	1057.69	1062.19	1066.43	–	–	–	–	–
298.15 K, x1 = 0.9735	1058.28	1062.83	1067.34	1071.56	–	–	–	–	–
298.15 K, x1 = 1	1063.45	1068	1072.51	1076.72	–	–	–	–	–
